Results: PubChem BioAssay (NCI)
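Cells were grown in 96-well plates and exposed to each compound for 48 hours at five concentrations; endpoints were interpolated linearly between bracketing concentrations, or set to the highest concentration if not reached. Definition used: TGI = concentration required for complete inhibition of growth.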 Where a SMILES comes first, the peptide text is derived from it. [ ]: non-standard residue; d: D form.

Experiments:
Assay in all cases: growth of human tumour cells (NCI), 48 h
[1] = system: TK-10 renal
[2] = system: UACC-257 melanoma
[3] = system: UO-31 renal
[4] = system: SF-295 CNS
[5] = system: SN12C renal
[6] = system: OVCAR-5 ovarian
[7] = system: OVCAR-4 ovarian
[8] = system: IGROV1 ovarian
[9] = system: SK-MEL-2 melanoma
[10] = system: HT29 colon
[11] = system: COLO 205 colon
[12] = system: SNB-19 CNS
[13] = system: RPMI-8226 leukemia
[14] = system: MDA-MB-231 breast
[15] = system: CAKI-1 renal
[16] = system: SF-268 CNS
[17] = system: SK-OV-3 ovarian
[18] = system: U251 CNS
[19] = system: BT-549 breast
[20] = system: HCT-116 colon
[21] = system: SK-MEL-5 melanoma
[22] = system: HOP-92 NSCLC
[23] = system: K-562 leukemia
[24] = system: SK-MEL-28 melanoma
[25] = system: HL-60(TB) leukemia
[26] = system: PC-3 prostate
[27] = system: ACHN renal
[28] = system: UACC-62 melanoma
[29] = system: SR leukemia
[30] = system: RXF 393 renal
[31] = system: MOLT-4 leukemia
[32] = system: OVCAR-3 ovarian
[33] = system: HCT-15 colon
[34] = system: KM12 colon
[35] = system: 786-0 renal
[36] = system: OVCAR-8 ovarian
[37] = system: NCI/ADR-RES ovarian
[38] = system: DU-145 prostate
[39] = system: NCI-H522 lung
[40] = system: CCRF-CEM leukemia
[41] = system: SW-620 colon
[42] = system: SNB-75 CNS
[43] = system: HS 578T breast
[44] = system: M14 melanoma
[45] = system: MDA-MB-435
[46] = system: HOP-62 NSCLC
[47] = system: NCI-H460 lung
[48] = system: NCI-H23 lung
[49] = system: SF-539 CNS
[50] = system: A498 renal
[51] = system: MCF7 breast
[52] = system: NCI-H226 lung
[53] = system: HCC-2998 colon
[54] = system: T-47D breast
[55] = system: A549 NSCLC
[56] = system: EKVX NSCLC
[57] = system: LOX IMVI melanoma

CCCCCCCCCCCCc1ccsc1-c1ccc(-c2ccc(-c3sc(-c4cc(CCCCCCCCCCCC)c(-c5ccc(-c6ccc(-c7sccc7CCCCCCCCCCCC)s6)s5)s4)cc3CCCCCCCCCCCC)s2)s1
TGI [1]: > 100 µM | TGI [2]: > 100 µM | TGI [3]: > 100 µM | TGI [4]: > 100 µM | TGI [5]: > 100 µM | TGI [6]: > 100 µM | TGI [7]: > 100 µM | TGI [8]: > 100 µM | TGI [9]: > 100 µM | TGI [10]: > 100 µM | TGI [11]: > 100 µM | TGI [12]: > 100 µM | TGI [13]: > 100 µM | TGI [14]: > 100 µM | TGI [15]: > 100 µM | TGI [16]: > 100 µM | TGI [17]: > 100 µM | TGI [18]: > 100 µM | TGI [19]: > 100 µM | TGI [20]: > 100 µM | TGI [21]: > 100 µM | TGI [22]: > 100 µM | TGI [23]: > 100 µM | TGI [24]: > 100 µM | TGI [25]: > 100 µM | TGI [26]: > 100 µM | TGI [27]: > 100 µM | TGI [28]: > 100 µM | TGI [29]: 75.2 µM | TGI [30]: > 100 µM | TGI [31]: > 100 µM | TGI [32]: > 100 µM | TGI [33]: > 100 µM | TGI [34]: > 100 µM | TGI [35]: > 100 µM | TGI [36]: > 100 µM | TGI [37]: > 100 µM | TGI [38]: > 100 µM | TGI [39]: > 100 µM | TGI [40]: > 100 µM | TGI [41]: > 100 µM | TGI [42]: > 100 µM | TGI [43]: > 100 µM | TGI [44]: > 100 µM | TGI [45]: > 100 µM | TGI [46]: > 100 µM | TGI [47]: > 100 µM | TGI [48]: > 100 µM | TGI [49]: > 100 µM | TGI [50]: > 100 µM | TGI [51]: > 100 µM | TGI [52]: > 100 µM | TGI [53]: > 100 µM | TGI [54]: > 100 µM | TGI [55]: > 100 µM | TGI [56]: > 100 µM

COc1ccc(C(C)c2cc3c(cc2O)OCO3)cc1 (centres undefined)
TGI [1]: 35.9 µM | TGI [57]: 26.5 µM | TGI [2]: 32.2 µM | TGI [3]: 29.8 µM | TGI [4]: 35.3 µM | TGI [5]: 33.3 µM | TGI [6]: 45.2 µM | TGI [7]: > 100 µM | TGI [8]: 36.5 µM | TGI [9]: 28.9 µM | TGI [10]: 28.9 µM | TGI [11]: 27.4 µM | TGI [12]: 66.6 µM | TGI [13]: 38.8 µM | TGI [14]: 28.6 µM | TGI [15]: 74.4 µM | TGI [16]: 32.5 µM | TGI [17]: 53.2 µM | TGI [18]: 28.6 µM | TGI [19]: 32.5 µM | TGI [20]: 29.6 µM | TGI [21]: 28.1 µM | TGI [22]: 31 µM | TGI [23]: 28.7 µM | TGI [24]: 33 µM | TGI [25]: 32.3 µM | TGI [26]: 31.9 µM | TGI [27]: 47.6 µM | TGI [28]: 24.4 µM | TGI [29]: 13.6 µM | TGI [30]: 30.1 µM | TGI [31]: 29.4 µM | TGI [32]: 28.3 µM | TGI [33]: 23.2 µM | TGI [34]: 83.3 µM | TGI [35]: 34.5 µM | TGI [36]: 31.7 µM | TGI [37]: 32.7 µM | TGI [38]: 36.5 µM | TGI [39]: 26 µM | TGI [41]: 28 µM | TGI [42]: 60.2 µM | TGI [43]: 42.6 µM | TGI [44]: 27.2 µM | TGI [45]: 18 µM | TGI [46]: 33.7 µM | TGI [47]: 28.8 µM | TGI [48]: 31.1 µM | TGI [49]: 37 µM | TGI [50]: 28.5 µM | TGI [51]: 30.8 µM | TGI [52]: 36.1 µM | TGI [53]: 19.3 µM | TGI [54]: 79.1 µM | TGI [55]: 32.2 µM | TGI [56]: 49.6 µM

O=C(Nc1ccc(Cl)cc1)c1cc2c(cc1Cl)SC(NNCCO)=NS2(=O)=O
TGI [1]: > 100 µM | TGI [57]: > 100 µM | TGI [2]: > 100 µM | TGI [3]: > 100 µM | TGI [4]: > 100 µM | TGI [7]: > 100 µM | TGI [8]: > 100 µM | TGI [9]: > 100 µM | TGI [10]: > 100 µM | TGI [11]: > 100 µM | TGI [12]: > 100 µM | TGI [13]: > 100 µM | TGI [14]: > 100 µM | TGI [15]: > 100 µM | TGI [16]: > 100 µM | TGI [17]: > 100 µM | TGI [18]: > 100 µM | TGI [19]: > 100 µM | TGI [20]: > 100 µM | TGI [21]: > 100 µM | TGI [22]: > 100 µM | TGI [23]: > 100 µM | TGI [24]: > 100 µM | TGI [25]: > 100 µM | TGI [26]: > 100 µM | TGI [27]: > 100 µM | TGI [28]: > 100 µM | TGI [29]: > 100 µM | TGI [30]: > 100 µM | TGI [31]: > 100 µM | TGI [33]: > 100 µM | TGI [34]: > 100 µM | TGI [35]: > 100 µM | TGI [36]: > 100 µM | TGI [37]: > 100 µM | TGI [38]: > 100 µM | TGI [40]: > 100 µM | TGI [41]: > 100 µM | TGI [42]: > 100 µM | TGI [43]: > 100 µM | TGI [44]: > 100 µM | TGI [45]: > 100 µM | TGI [46]: > 100 µM | TGI [47]: > 100 µM | TGI [48]: > 100 µM | TGI [49]: > 100 µM | TGI [50]: > 100 µM | TGI [51]: > 100 µM | TGI [52]: > 100 µM | TGI [53]: > 100 µM | TGI [54]: > 100 µM | TGI [56]: > 100 µM

NC(N)=NCCC[C@H]1NC(=O)[C@@H](CCC(=O)O)NC(=O)[C@@H](CC(=O)O)NC(=O)[C@@H](CCC(=O)O)NC(=O)[C@H](Cc2c[nH]c3ccccc23)NC1=O (cyclo(W[dE][dD][dE][dR]))
TGI [1]: > 7.5 µM | TGI [57]: > 7.5 µM | TGI [2]: > 7.5 µM | TGI [3]: > 7.5 µM | TGI [4]: > 7.5 µM | TGI [5]: > 7.5 µM | TGI [6]: > 7.5 µM | TGI [7]: > 7.5 µM | TGI [8]: > 7.5 µM | TGI [9]: 0.507 µM | TGI [10]: > 7.5 µM | TGI [11]: > 7.5 µM | TGI [12]: > 7.5 µM | TGI [13]: > 7.5 µM | TGI [14]: > 7.5 µM | TGI [15]: > 7.5 µM | TGI [16]: > 7.5 µM | TGI [17]: > 7.5 µM | TGI [18]: > 7.5 µM | TGI [19]: > 7.5 µM | TGI [20]: > 7.5 µM | TGI [21]: > 7.5 µM | TGI [22]: > 7.5 µM | TGI [23]: > 7.5 µM | TGI [25]: > 7.5 µM | TGI [26]: > 7.5 µM | TGI [27]: > 7.5 µM | TGI [28]: > 7.5 µM | TGI [29]: > 7.5 µM | TGI [30]: > 7.5 µM | TGI [31]: > 7.5 µM | TGI [32]: > 7.5 µM | TGI [33]: > 7.5 µM | TGI [34]: > 7.5 µM | TGI [35]: > 7.5 µM | TGI [36]: > 7.5 µM | TGI [37]: > 7.5 µM | TGI [38]: > 7.5 µM | TGI [39]: > 7.5 µM | TGI [40]: > 7.5 µM | TGI [41]: > 7.5 µM | TGI [43]: > 7.5 µM | TGI [44]: > 7.5 µM | TGI [45]: > 7.5 µM | TGI [46]: > 7.5 µM | TGI [47]: > 7.5 µM | TGI [48]: > 7.5 µM | TGI [49]: > 7.5 µM | TGI [50]: > 7.5 µM | TGI [51]: > 7.5 µM | TGI [52]: > 7.5 µM | TGI [53]: > 7.5 µM | TGI [54]: > 7.5 µM | TGI [55]: > 7.5 µM | TGI [56]: > 7.5 µM
